Here are results for 3 molecules from patent US20240391899A1, “POTENT AND SELECTIVE INHIBITORS OF IRAK4” (Dana-Farber Cancer Institute, Inc., priority 2021, published 2024).

One assay concerns BCWM.1. Description: CellTiter-Glo Luminescent cell viability assay, BCWM.1. It is filed as cell-based. To be noted: BCWM1, BCWM.1 cell line, 72 hours at 37° C., read-out: ED50 (the source's name). As to the method:
(§1) The CellTiter-Glo® Luminescent cell viability assay (Promega, Madison WI) was used to assess the dose-response of inhibitors alone or in combination. Cells were seeded into 384 well plates with the EL406 Combination Washer Dispenser (BioTek Instruments, Inc.) and inhibitors were injected into culture media with the JANUS Automated Workstation (PerkinElmer Inc., Waltham MA). Cells were incubated with inhibitors for 72 hours at 37° C. Luminescent measurements to assess cell viability were performed using the 2104 Envision® Multilabel Reader (PerkinElmer Inc.). Drug interactions were assessed by CalcuSyn 2.0 software (Biosoft, Cambridge UK) based on Chou TC.

The next assay deals with MWCL-1. In words: CellTiter-Glo Luminescent cell viability assay, MWCL-1. The conditions noted are these: MWCL-1 cell line, 72 hours at 37° C., read-out: ED50 (the source's name). It counts as cell-based. As for the experimental part: as §1
Background: Cellular ATP, detected with luciferase, serves as a proxy for viable cell number.

The next assay deals with TMD8. In words: CellTiter-Glo Luminescent cell viability assay, TMD8. It counts as cell-based. To be noted: Homo sapiens, TMD8 cell line, 72 hours at 37° C., read-out: ED50 (the source's name). As for the experimental part: as §1
Another assay has as its system HBL-1. Description: CellTiter-Glo Luminescent cell viability assay, HBL-1. It is filed as cell-based. The conditions noted are these: HBL1, HBL-1 cell line, 72 hours at 37° C., read-out: ED50 (the source's name). As for the experimental part: as §1
The subject of another assay is OCI-Ly7. In words: CellTiter-Glo Luminescent cell viability assay, OCI-Ly7. To be noted: Homo sapiens, OCI-Ly7 cell line, 72 hours at 37° C., read-out: ED50 (the source's name). It counts as cell-based. As for the experimental part: as §1
For the next assay, the system named is OCI-Ly19. In words: CellTiter-Glo Luminescent cell viability assay, OCI-Ly19. It is filed as cell-based. To be noted: Homo sapiens, OCI-Ly19 cell line, 72 hours at 37° C., read-out: ED50 (the source's name). As to the method: as §1
Another assay concerns RPMI-8226. In words: CellTiter-Glo Luminescent cell viability assay, RPMI-8226. It counts as cell-based. To be noted: Homo sapiens, RPMI-8226 cell line, 72 hours at 37° C., read-out: ED50 (the source's name). As to the method: as §1
A further assay deals with SU-DHL-6. In words: CellTiter-Glo Luminescent cell viability assay, SU-DHL-6. To be noted: Homo sapiens, SU-DHL-6 cell line, 72 hours at 37° C., read-out: ED50 (the source's name). It counts as cell-based. As for the experimental part:
as §1

The next assay relates to JeKo-1. Description: CellTiter-Glo Luminescent cell viability assay, JeKo-1. It is filed as cell-based. The conditions noted are these: Homo sapiens, JeKo-1 cell line, 72 hours at 37° C., read-out: ED50 (the source's name). As for the experimental part:
as §1

Another assay has as its system Ramos. Description: CellTiter-Glo Luminescent cell viability assay, Ramos. It counts as cell-based. The conditions noted are these: Homo sapiens, Ramos cell line, 72 hours at 37° C., read-out: ED50 (the source's name). As to the method:
as §1

The target of the next assay is T1, IRAK4 (Homo sapiens, UniProt Q9NWZ3).
T1 construct: purchased ThermoFisher
T1 sequence (Q9NWZ3 1-460): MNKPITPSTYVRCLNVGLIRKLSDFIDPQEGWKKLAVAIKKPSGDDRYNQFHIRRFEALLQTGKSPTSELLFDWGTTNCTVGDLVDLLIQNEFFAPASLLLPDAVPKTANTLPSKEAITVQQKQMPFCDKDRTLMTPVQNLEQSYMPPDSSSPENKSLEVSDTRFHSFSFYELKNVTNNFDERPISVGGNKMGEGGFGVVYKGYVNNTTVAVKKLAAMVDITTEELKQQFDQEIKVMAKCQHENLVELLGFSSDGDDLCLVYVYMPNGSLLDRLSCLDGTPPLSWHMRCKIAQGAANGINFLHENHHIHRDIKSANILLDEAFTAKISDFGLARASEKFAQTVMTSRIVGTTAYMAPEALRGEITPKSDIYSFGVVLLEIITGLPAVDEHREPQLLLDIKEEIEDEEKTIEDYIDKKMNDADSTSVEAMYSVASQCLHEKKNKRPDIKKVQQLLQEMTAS
In words: IRAK4 enzymatic assay (Z'-LYTE, ThermoFisher). It counts as biochemical. To be noted: 60 minutes at room temperature. As for the experimental part: To measure the IC50 values of compounds herein against IRAK4, a Z′-LYTE assay (ThermoFisher) was used. Briefly, 2.5 μL of different concentrations of the compounds in 1% DMSO were added to 2.4 μL kinase buffer (50 mM HEPES pH 7.5, 0.01% BRIJ-35, 10 mM MgCl2, 1 mM EGTA) in each well of a 384-well plate (Corning Cat. #3676). 5 μL of 2×IRAK4/Ser/Thr 07 mixture (prepared in 50 mM HEPES pH 7.5, 0.01% BRIJ-35, 10 mM MnCl2, 2 mM DTT, and 0.02% NaN3) and 2.5 μL of 4×ATP solution (4×ATP, 50 mM HEPES, pH 7.5, 0.01% BRIJ-35, 10 mM MgCl2, 1 mM EGTA) were added to each well. The plate was shaken for 30 seconds, and then incubated at room temperature for 60 minutes. 5 μL of a 1:100000 dilution of Development Reagent A was added to each well. The plate was shaken for 30 seconds and incubated for 60 minutes at room temperature. The plate was subsequently read on a fluorescence plate reader, and the emissions ratio was calculated to determine the ratio of Ser/Thr 07 phosphorylated by the reaction. Emissions Ratio=Coumarin Emission (443 nm)/Flourescein Emission (520 nm).

A further assay addresses T2, IRAK1 (Homo sapiens, UniProt P51617).
T2 construct: purchased ThermoFisher
Description: IRAK1 enzymatic assay (Adapta Universal Kinase Assay, ThermoFisher). To be noted: 60 minutes at room temperature. It is filed as biochemical. As for the experimental part: To measure the IC50 values of the compounds herein against IRAK1, the Adapta Universal Kinase Assay (ThermoFisher) was used. Briefly, 100 nL of different concentrations of the compounds in 100% DMSO were added to each well of a 384-well plate (Corning Cat. #4512). 2.4 μL of 30 mM HEPES, 2.5 μL of 4×ATP solution (in water), and 5 μL of 2×IRAK1/Histone H3 (1-20) peptide mixture (prepared in 50 mM HEPES pH 7.5, 0.01% BRIJ-35, 10 mM MgCl2, 1 mM EGTA) were added to each well. The plate was shaken for 30 seconds and centrifuged for 1 minute at 1000×g. The plate was then incubated at room temperature for 60 minutes. 5 μL of Detection Mix was added to each well. The plate was shaken for 30 seconds and centrifuged for 1 minute at 1000×g. The plate was then incubated at room temperature for 60 minutes. The plate was subsequently read on a fluorescence plate reader, and the emissions ratio was calculated to determine the ratio of ATP to ADP. Emissions Ratio=AF647 Emission (665 nm)/Europium Emission (615 nm).

In another assay the test system is multiple cell lines. Description: Cellular IRAK4 inhibitory activity screened across multiple cell lines. It counts as cell-based. As for the experimental part: as §1, with “TC. Cellular IRAK4 inhibitory activities of compound 015 and two commercial IRAK4 inhibitors, CA-4948 and PF06650833, were screened across multiple cell lines.” for “TC.”

pEC50, pIC50: −log10 of the molar value.

T2 sequence (P51617 whole entry): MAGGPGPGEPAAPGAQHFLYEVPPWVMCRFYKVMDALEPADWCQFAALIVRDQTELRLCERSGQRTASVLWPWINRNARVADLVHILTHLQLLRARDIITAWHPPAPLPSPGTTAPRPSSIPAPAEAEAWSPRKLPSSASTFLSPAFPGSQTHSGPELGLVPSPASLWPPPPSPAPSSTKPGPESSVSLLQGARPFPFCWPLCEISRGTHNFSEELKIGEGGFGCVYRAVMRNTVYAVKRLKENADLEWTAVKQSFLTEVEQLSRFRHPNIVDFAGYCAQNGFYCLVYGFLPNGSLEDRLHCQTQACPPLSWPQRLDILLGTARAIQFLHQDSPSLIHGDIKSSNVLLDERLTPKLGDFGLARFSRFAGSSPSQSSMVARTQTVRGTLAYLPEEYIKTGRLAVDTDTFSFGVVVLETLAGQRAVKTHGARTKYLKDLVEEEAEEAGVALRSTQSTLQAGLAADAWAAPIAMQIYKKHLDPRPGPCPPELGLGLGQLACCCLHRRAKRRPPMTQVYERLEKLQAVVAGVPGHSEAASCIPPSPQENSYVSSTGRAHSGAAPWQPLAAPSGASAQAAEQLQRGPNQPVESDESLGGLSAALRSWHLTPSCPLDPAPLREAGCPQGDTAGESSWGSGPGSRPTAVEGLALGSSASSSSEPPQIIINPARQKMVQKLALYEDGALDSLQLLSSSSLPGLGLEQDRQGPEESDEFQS

Turning to `Cc1cc(-c2nc(C(=O)Nc3cc4oc(N5CCOCC5)nc4nc3N3CC[C@@H](O)C3)co2)ccn1` [CA-4948], the pEC50 was 5.70 with BCWM.1; 4.92 in the assay on MWCL-1; 5.03 in the assay on TMD8; 4.95 in the assay on HBL-1; 4.89 with OCI-Ly7; 5.66 in the assay on OCI-Ly19. The figures for the pEC50 with RPMI-8226, in the assay on SU-DHL-6 and with JeKo-1 were 4.85, 5.06 and 5.18, respectively.

Regarding `CC[C@@H]1[C@H](F)C(=O)N[C@@H]1COc1nccc2cc(C(N)=O)c(OC)cc12` [PF06650833], the pEC50 in the assay on BCWM.1 was 4.96; in the assay with MWCL-1, 4.74; in the assay with TMD8, 4.62; in the assay on HBL-1 it was 4.83; in the assay with OCI-Ly7 it was 5.01; with OCI-Ly19, 5.23. Further, the pEC50 with Ramos was 4.54; with RPMI-8226, 4.09.

For the molecule `Cc1ccc(-n2nc(C3CCN(C(C)C)CC3)cc2NC(=O)c2cccc(-c3cnn(CC(N)=O)c3)n2)nc1` [Compound 015, 6-(1-(2-amino-2-oxoethyl)-1H-pyrazol-4-yl)-N-(3-(1-isopropylpiperidin-4-yl)-1-(5-methylpyridin-2-yl)-1H-pyrazol-5-yl)picolinamide], the pIC50 at IRAK4 is 8.05; on IRAK1, 6.35. The pEC50 with BCWM.1 was 5.48; with MWCL-1, 5.16; in the assay with TMD8, 5.41; with HBL-1 it was 5.66; with OCI-Ly7, 5.51; in the assay with OCI-Ly19, 5.91. Also, the pEC50 with Ramos was 6.44; with RPMI-8226 it was 5.17; in the assay on SU-DHL-6 it was 5.76; in the assay with JeKo-1, 5.20. In addition, the “Potency compared with CA-4948 and PF06650833” value in the assay with multiple cell lines is given as “more potent in most cell lines”.

The pIC50 is −log10 of the IC50, conventionally taken in molar units. A low value points to a high IC50.
